These results are taken from patent US8889709B2, “Use of isoQC inhibitors in the treatment and prevention of inflammatory diseases or conditions” (Probiodrug AG, priority 2006, dated 2014).

Assay [1] deals with Thioglycollate-induced peritonitis in C57/Bl6J mice. As to the kind of experiment: Thioglycollate-induced peritonitis in C57/Bl6J wild type mice. Type of assay: in vivo, mouse. On the procedure: C57/Bl6J mice were purchased from Charles River Laboratories (Kisslegg, Germany). For each experiment, the mice were age- and sex-matched. An intraperitoneal injection of 25 ml/kg body weight of sterile 8% (w/v) thioglycollate (Sigma-Aldrich) was used to induce peritonitis. 30 min before the thioglycollate-stimulus, animals were injected with different doses of isoQC-inhibitor isoQC-I. For lavage of the peritoneum, the animals were anesthetized using 2% isofluran. The peritoneal exudates were collected by washing the peritoneum with 8 ml of sterile PBS 4 h after thioglycollate injection. Cells of 1 ml lavage fluid were collected by centrifugation (300 g, 10 min) and stained according to the manufacturer's instructions for BD Trucount tubes (BD Trucount tubes; catalog no. 340334; BD Biosciences, Heidelberg, Germany). Cells were blocked with CD16/32 (Caltag) at 4° C. for 15 min. and stained with 7/4-FITC (Serotec, Dusseldorf, Germany)/Ly6G-PE (Miltenyi, Bergisch Gladbach, Germany) as well as IgG1-PE (BD)/IgG2a-FITC (Miltenyi) as isotype controls at room temperature for 15 min. After staining, erythrocytes were lysed with BD FACSLyse (BD) in the dark at room temperature for 15 min. After washing with PBS, flow cytometric analysis was performed on a BD FACSCalibur (BD) based on 5000 beads per sample as reference standard.

Assay [2] addresses T1, human isoQC (Homo sapiens, UniProt Q9NXS2). As to the kind of experiment: Inactivation of human isoQC by heterocyclic chelators. Type of assay: biochemical.
Target sequence in this assay (Q9NXS2 whole entry): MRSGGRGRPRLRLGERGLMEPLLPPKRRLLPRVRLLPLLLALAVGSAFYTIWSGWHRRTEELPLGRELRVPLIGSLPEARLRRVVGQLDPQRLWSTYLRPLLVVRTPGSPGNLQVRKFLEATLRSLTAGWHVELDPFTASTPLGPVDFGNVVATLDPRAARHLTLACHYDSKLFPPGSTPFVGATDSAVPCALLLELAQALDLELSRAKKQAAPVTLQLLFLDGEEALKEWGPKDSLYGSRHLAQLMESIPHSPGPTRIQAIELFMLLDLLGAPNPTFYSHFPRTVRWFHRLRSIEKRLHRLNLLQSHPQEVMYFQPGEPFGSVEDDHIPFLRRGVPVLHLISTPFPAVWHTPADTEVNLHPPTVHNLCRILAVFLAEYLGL
Assay [3] has as its target T2, mouse-isoQC (Mus musculus, UniProt Q8BH73, I74N). As to the kind of experiment: Inactivation/reactivation of mouse-isoQC by chelators and metal ions. As to conditions: for reactivation of mouse-isoQC apoenzyme: metal added after removal of the chelator.
Experimental: The final dialysis was performed for 5 h. All buffers were prepared in metal-free polystyrene containers. Subsequently, the apoenzyme was centrifuged at 20.000×g for 1 h at 4° C., and the protein concentration was determined by UV absorbance.
For another assay, the target named is human QC (Homo sapiens, UniProt Q16769). In words: Inhibitor assay, human QC (Ki/IC50, competitive inhibition).
human QC, sequence (Q16769 29-361): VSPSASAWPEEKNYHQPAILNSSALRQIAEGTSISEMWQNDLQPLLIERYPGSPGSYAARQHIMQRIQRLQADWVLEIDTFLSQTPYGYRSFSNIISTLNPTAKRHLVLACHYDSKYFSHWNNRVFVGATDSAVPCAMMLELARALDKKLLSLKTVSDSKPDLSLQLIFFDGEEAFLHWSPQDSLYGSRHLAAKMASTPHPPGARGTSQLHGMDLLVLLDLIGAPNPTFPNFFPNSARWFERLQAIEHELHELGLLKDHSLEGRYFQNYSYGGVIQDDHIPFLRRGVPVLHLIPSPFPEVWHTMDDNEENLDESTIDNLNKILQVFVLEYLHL
In assay [4] the target is T3, human isoQC (Homo sapiens, UniProt Q9NXS2, C369A/I73N). As to the kind of experiment: Inhibitor assay, human isoQC (Ki/IC50, competitive inhibition).
T3 sequence (Q9NXS2 48-382 I73N/C369A): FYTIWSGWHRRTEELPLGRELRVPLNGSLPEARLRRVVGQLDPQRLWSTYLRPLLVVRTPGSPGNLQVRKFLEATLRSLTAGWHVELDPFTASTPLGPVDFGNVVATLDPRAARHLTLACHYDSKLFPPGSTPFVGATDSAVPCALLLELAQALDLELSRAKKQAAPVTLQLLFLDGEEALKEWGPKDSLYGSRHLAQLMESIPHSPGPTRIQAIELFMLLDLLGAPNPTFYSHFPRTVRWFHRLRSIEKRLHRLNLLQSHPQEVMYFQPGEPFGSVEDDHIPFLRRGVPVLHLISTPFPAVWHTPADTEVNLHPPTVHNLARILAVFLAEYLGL
Experimental: (§4) All measurements were performed with a NovoStar reader for microplates (BMG Labtechnologies) at 30° C. […] Excitation/emission wavelengths were 320/410 nm.
Assay [5] has as its target T1, human isoQC. The assay is described as above.
Target sequence in this assay (Q9NXS2 48-382): as the sequence (Q9NXS2 48-382 I73N/C369A) above, with N26I, A322C counted along it
Experimental: as §4
Assay [6] addresses T2, mouse-isoQC. As to the kind of experiment: Kinetic parameters of conversion of peptide substrates by murine isoQC. Also noted: starting with codon 43 (Glu 43) of the open reading frame (counting from methionine II); yeast alpha-factor secretion signal (N); made in house; host or cells: Pichia pastoris X-33. The format is biochemical. As for the experimental part: (§1) Excitation/emission wavelengths were 320/410 nm.
(§2) Excitation/emission wavelengths were 380/460 nm.
(§3) Kinetic data were evaluated using GraFit software.

The target in assay [7] is T3, human isoQC. In words: Kinetic evaluation of peptide substrates of human isoQC. Type of assay: biochemical. Also noted: The cDNA of the mature human isoQC starting with codon 30 (counting from methionine II); His6 (C-His) (C); yeast alpha-factor secretion signal (YSS) (N); made in house; host or cells: Pichia pastoris X-33. As to conditions: human isoQC expressed in P. pastoris (YSShisoQC). On the procedure: as §1, §2, §3

The target of assay [8] is T1, human isoQC. The description is as above. Type of assay: biochemical. Also on record: The cDNA of the mature human isoQC starting with codon 30 (counting from methionine II); His6 (C-His) (C); yeast alpha-factor secretion signal (YSS) (N); made in house; host or cells: Pichia pastoris X-33. The settings on record: human isoQC expressed in E. coli BL21 (hisoQCdt). As for the experimental part: as §1, §2, §3
Target sequence in this assay (Q9NXS2 48-382): as the sequence (Q9NXS2 48-382 I73N/C369A) above, with N26I, A322C counted along it

Where two headings read alike, the source gives them in different places. Peptide text beside a SMILES is read from it.

As usually defined, the Ki is a measure of affinity in units of concentration, obtained from inhibition or displacement. In general, IC50 refers to the point on the concentration scale where inhibition reaches its midpoint. Higher therefore signals weaker potency. Broadly, the Km is the concentration of substrate that gives half-maximal velocity.

T2 sequence (Q8BH73 61-383 I74N): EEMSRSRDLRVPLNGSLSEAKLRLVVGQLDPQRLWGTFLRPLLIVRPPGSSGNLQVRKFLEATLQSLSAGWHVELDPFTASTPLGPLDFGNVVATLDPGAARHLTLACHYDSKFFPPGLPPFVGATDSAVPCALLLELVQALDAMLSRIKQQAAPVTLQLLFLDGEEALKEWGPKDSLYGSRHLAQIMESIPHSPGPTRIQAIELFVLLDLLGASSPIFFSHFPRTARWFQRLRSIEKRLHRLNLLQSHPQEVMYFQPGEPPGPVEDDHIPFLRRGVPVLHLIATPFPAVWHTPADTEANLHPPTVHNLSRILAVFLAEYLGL
Experimental for human QC: as §4

Take `CCCOc1ccc(C2C(=O)NC(=O)N2c2ccc3[nH]cnc3c2)cc1` (racemic) [Example 6, 1-(1H-benzo[d]imidazol-5-yl)-5-(4-propoxyphenyl)imidazolidine-2,4-dione]: the “infiltrating monocytes in the peritoneum (FACS)” value in assay [1] (6 mg/kg ip) was “reduction”; in assay [1] (18 mg/kg ip), “reduced the infiltration of monocytes down to baseline values”; in [1] (different doses ip 30 min before thioglycollate, lavage 4 h after), “dose-dependent reduction”. Moreover, in assay [1] (FIG. 25b, different doses), the “pGlu-MCP-1 in lavage fluid” value is given as “reduction of pGlu-content”.
Regarding `c1cnc2c(c1)ccc1cccnc12` [1,10-phenantroline], the “inactivation of human isoQC” value at human isoQC [2] is reported as “inactivated”. For the same compound, the “inactivation of mouse-isoQC” value at mouse-isoQC [3] (dialysis against buffer containing 5 mM 1,10-phenantrolin and 5 mM EDTA) is listed as “inactivation”.
With `Cn1ccnc1` [1-Methylimidazole], the values for the Ki on human QC, at human isoQC [4] and at human isoQC [5] were 39.7 ± 0.2 µM, 82000 ± 3000 nM and 80 ± 5 µM, respectively.
Turning to `c1ccc2[nH]cnc2c1` [Benzimidazole], the inhibitory constant (Ki) worked out at 138 ± 4 µM on human QC (read-out: Ki (μM) hQC, competitive inhibition); 250000 ± 5000 nM on human isoQC [4]; 200 ± 8 µM on human isoQC [5].
Consider `O=C(O)CN(CCN(CC(=O)O)CC(=O)O)CC(=O)O` [EDTA], for which, at human isoQC [2], the “inactivation of human isoQC” value is on record as “inactivated”.
On human isoQC [4], `O=C1NC(=O)N(c2ccc3[nH]cnc3c2)C1c1ccc2nsnc2c1` (centres unmarked) [Example 1, 5-(benzo[c][1,2,5]thiadiazol-6-yl)-1-(1H-benzo[d]imidazol-5-yl)imidazolidine-2,4-dione] came in with a 50% inhibitory concentration (IC50) of 3.3 nM and a Ki of 1.62 nM.
In the case of `O=C1NC(=O)N(c2ccc3[nH]cnc3c2)C1c1ccccc1` (centres unmarked) [Example 2, 1-(1H-benzo[d]imidazol-5-yl)-5-phenylimidazolidine-2,4-dione], on human isoQC [4], the IC50 came out at 29.6 nM and the Ki was found to be 16.4 nM.
The matching figures for `O=C1NC(=O)N(c2ccc3[nH]cnc3c2)C1c1cc(C(F)(F)F)ccc1F` (centres unmarked) [Example 4, 1-(1H-benzo[d]imidazol-5-yl)-5-(2-fluoro-5-(trifluoromethyl)phenyl)imidazolidine-2,4-dione]: 150 nM and 25.8 nM.
At human isoQC [4], `O=C1NC(=O)N(c2ccc3[nH]cnc3c2)C1c1cc(F)ccc1Br` (centres unmarked) [Example 5, 1-(1H-benzo[d]imidazol-5-yl)-5-(2-bromo-5-fluorophenyl)imidazolidine-2,4-dione] had an IC50 of 66 nM and a Ki of 8.27 nM.
For the compound `O=C1NC(=O)N(c2ccc3[nH]cnc3c2)C1c1ccc(Cl)c(C(F)(F)F)c1` (centres unmarked) [Example 7, 1-(1H-benzo[d]imidazol-5-yl)-5-(4-chloro-3-(trifluoromethyl)phenyl)imidazolidine-2,4-dione], on human isoQC [4], the IC50 amounted to 1400 nM and the affinity, expressed as Ki, was 35.2 nM.
The matching figures for `COc1ccc(C2C(=O)NC(=O)N2c2ccc3[nH]cnc3c2)cc1O` (centres unmarked) [Example 9, 1-(1H-benzo[d]imidazol-5-yl)-5-(3-hydroxy-4-methoxyphenyl)imidazolidine-2,4-dione]: 30.3 nM and 2.66 nM.
The matching figures for `O=C1NC(=O)N(c2ccc3[nH]cnc3c2)C1c1cccc(Cl)c1` (centres unmarked) [Example 12, 1-(1H-benzo[d]imidazol-5-yl)-5-(3-chlorophenyl)imidazolidine-2,4-dione]: 58 nM and 10.5 nM.
The like results for `O=C1NC(=O)N(c2ccc3[nH]cnc3c2)C1c1ccc(Cl)cc1` (centres unmarked) [Example 13, 1-(1H-benzo[d]imidazol-5-yl)-5-(4-chlorophenyl)imidazolidine-2,4-dione] were, in that order, 52 nM and 6.71 nM.
On human isoQC [4], `O=C1NC(=O)N(c2ccc3[nH]cnc3c2)C1c1ccccc1Cl` (centres unmarked) [Example 14, 1-(1H-benzo[d]imidazol-5-yl)-5-(2-chlorophenyl)imidazolidine-2,4-dione] gave an IC50 of 40 nM and a Ki of 3.07 nM.
The like results for `O=C1NC(=O)N(c2ccc3[nH]cnc3c2)C1c1ccc(F)cc1` (centres unmarked) [Example 15, 1-(1H-benzo[d]imidazol-5-yl)-5-(4-fluorophenyl)imidazolidine-2,4-dione] were, in that order, 60 nM and 12.3 nM.
On human isoQC [4], `O=C1NC(=O)N(c2ccc3[nH]cnc3c2)C1c1ccc2c(c1)OCCO2` (centres unmarked) [Example 16, 1-(1H-benzo[d]imidazol-5-yl)-5-(2,3-dihydrobenzo[b][1,4]dioxin-7-yl)imidazolidine-2,4-dione] came in with an IC50 of 57.6 nM and a Ki of 4.14 nM.
The like results for `O=C1NC(=O)C2(Cc3ccccc3C2)N1c1ccc2[nH]cnc2c1` [Example 32, 3-(1H-benzimidazol-5-yl)-1′,3′-dihydro-2H,5H-spiro[imidazolidine-4,2′-indene]-2,5-dione] were, in that order, 166 nM and 40.9 nM.
At human isoQC [4], `O=C1NC(=S)C(c2ccc(Cl)cc2)N1c1ccc2[nH]cnc2c1` (centres unmarked) [Example 40, 1-(1H-benzo[d]imidazol-5-yl)-5-(4-chlorophenyl)-4-thioxoimidazolidin-2-one] yielded an IC50 of 58.3 nM and a Ki of 11.4 nM.
As to `O=C1NC(=S)C(c2ccc(F)c(F)c2F)N1c1ccc2nc[nH]c2c1` (centres unmarked) [Example 41, 1-(1H-benzo[d]imidazol-5-yl)-5-(2,3,4-trifluorophenyl)-4-thioxoimidazolidin-2-one], on human isoQC [4], the IC50 is 163 nM and the Ki was 34.5 nM.
`Cc1cc(=O)oc2cc(NC(=O)[C@@H](N)CCC(N)=O)ccc12` [Q-AMC, H-Gln-AMC]: on mouse-isoQC [6], the Km came out at 0.022 ± 0.001 mM and the “kcat (s^−1) m-isoQC” value was 6.98 ± 0.35 s⁻¹. Also, on human isoQC [7], the Michaelis constant (Km) was 0.03 ± 0.0064 mM and the “kcat (s^−1) YSShisQC” value came to 3.72 ± 0.44 s⁻¹. On human isoQC [8], the Km amounted to 0.01 ± 0.0009 mM and the “kcat (s^−1) hisoQCdt” value came to 1.07 ± 0.03 s⁻¹.
`NC(=O)CC[C@H](N)C(=O)Nc1ccc2ccccc2c1` [Q-βNA, H-Gln-βNA]: on mouse-isoQC [6], the Km was 0.032 ± 0.003 mM and the “kcat (s^−1) m-isoQC” value worked out at 17.48 ± 0.97 s⁻¹. Besides, at human isoQC [7], the Km is 0.035 ± 0.0005 mM and the “kcat (s^−1) YSShisQC” value amounted to 8.16 ± 0.87 s⁻¹. At human isoQC [8], the Michaelis-Menten constant (Km) came to 0.03 ± 0.002 mM and the “kcat (s^−1) hisoQCdt” value turned out to be 3.37 ± 0.12 s⁻¹.
With `CC(C)C[C@H](NC(=O)[C@H](CC(=O)O)NC(=O)[C@H](CCC(=O)O)NC(=O)[C@@H](N)CCC(N)=O)C(=O)O` [QEDL] (H-QEDL-OH), the Km on human isoQC [7] is 0.16 ± 0.01 mM; on human isoQC [8], 0.63 ± 0.052 mM.
The matching figures for `NC(=O)CC[C@H](N)C(=O)N[C@@H](CCC(=O)O)C(=O)O` [QE] (H-Gln-Glu-OH): 0.61 ± 0.064 mM and 0.7 ± 0.13 mM.
The like results for `C[C@H](NC(=O)[C@H](Cc1ccccc1)NC(=O)[C@@H](N)CCC(N)=O)C(=O)O` [QFA] (H-Gln-Phe-Ala-OH) were, in that order, 0.104 ± 0.025 mM and 0.11 ± 0.016 mM.
`NC(=O)CC[C@H](N)C(=O)NCC(=O)O` [QG] (H-Gln-Gly-OH): the Michaelis-Menten constant (Km) on mouse-isoQC [6] stood at 0.16 ± 0.01 mM; at human isoQC [7], 0.36 ± 0.047 mM; on human isoQC [8], 0.42 ± 0.04 mM.
Turning to `NC(=O)CC[C@H](NC(=O)[C@@H](N)CCC(N)=O)C(=O)O` [QQ] (H-Gln-Gln-OH), the Km is 0.11 ± 0.007 mM on human isoQC [7] and 0.11 ± 0.027 mM at human isoQC [8].
Regarding `O=S(=O)([O-])[O-].[Zn+2]` [ZnSO4], on mouse-isoQC [3], the “reactivation of mouse-isoQC apoenzyme” value is “complete reactivation”.
`O=C(O)c1cccc(C(=O)O)n1` [dipicolinic acid]: on human isoQC [2], the “inactivation of human isoQC” value is listed as “inactivated”.
Consider calcium, for which the “reactivation of mouse-isoQC apoenzyme” value at mouse-isoQC [3] is listed as “No reactivation”.
With manganese, the “reactivation of mouse-isoQC apoenzyme” value on mouse-isoQC [3] was “No reactivation”.
